pEC50, pKi: −log10 of the molar value. Counter-ions that a name gives are not always drawn. A value given as a limit tells only on which side of the number the result lay.

The values that follow come from patent US10501421B1, “Substituted benzimidazoles as modulators of Ras signaling” (VANDERBILT UNIVERSITY, priority 2017, dated 2019).

Test [1] concerns the target Ras GEF SOS (Son of Sevenless) (Homo sapiens, UniProt Q07889). Description: SOS-mediated nucleotide exchange on Ras (BODIPY-GDP fluorescence). The test is classed as biochemical. The note with it: SOS-mediated exchange of BODIPY-GDP for GTP on Ras. The essentials:
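Exchange rates were taken from single-exponential fits of the fluorescence time course as BODIPY-GDP on Ras was replaced by GTP. Compound went in first, then GTP and SOS. Mean rates plotted against concentration gave EC50 by four-parameter dose-response fitting.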

The next test concerns the target T1, Son of Sevenless (SOS) (Homo sapiens, UniProt Q07889).
T1 sequence (Q07889 564-1049 limits assumed): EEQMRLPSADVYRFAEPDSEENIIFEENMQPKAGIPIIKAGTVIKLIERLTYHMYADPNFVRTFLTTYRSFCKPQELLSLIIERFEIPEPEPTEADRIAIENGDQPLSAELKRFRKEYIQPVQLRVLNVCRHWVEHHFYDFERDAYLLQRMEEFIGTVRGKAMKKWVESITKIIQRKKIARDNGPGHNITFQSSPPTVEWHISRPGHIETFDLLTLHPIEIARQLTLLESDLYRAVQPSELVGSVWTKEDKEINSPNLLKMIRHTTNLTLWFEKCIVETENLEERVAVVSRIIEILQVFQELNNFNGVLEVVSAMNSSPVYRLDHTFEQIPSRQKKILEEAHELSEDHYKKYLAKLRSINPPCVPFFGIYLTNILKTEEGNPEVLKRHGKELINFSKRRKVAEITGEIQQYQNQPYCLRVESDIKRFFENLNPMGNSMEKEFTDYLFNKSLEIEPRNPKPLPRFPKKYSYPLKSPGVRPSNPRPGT
Description: Binding to SOS, fluorescence polarization anisotropy (FPA) probe displacement. The note with it: displacement of FITC-conjugated probe (Example 285), affinity calculated from IC50. The procedure, abridged:
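Test compounds were titrated against SOS pre-bound to a fluorescein-labelled probe, with anisotropy plotted versus compound concentration. Binding affinities were derived from IC50 values obtained by four-parameter dose-response fitting.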

Chain of Ras GEF SOS (Son of Sevenless) (P01112 1-166 partner limits assumed, one chain of several): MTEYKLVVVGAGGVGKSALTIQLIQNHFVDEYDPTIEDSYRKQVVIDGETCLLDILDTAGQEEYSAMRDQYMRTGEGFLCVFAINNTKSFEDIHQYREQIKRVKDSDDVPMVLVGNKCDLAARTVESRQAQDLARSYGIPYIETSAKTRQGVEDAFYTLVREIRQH

In general, pEC50 refers to −log10 of the EC50, conventionally taken in molar units. Read a high pEC50 as a small EC50. For orientation: pKi means the Ki on a negative log10 scale, so that one unit is a factor of ten. With `Cc1cc(Cn2c(NCCN)nc3c(-c4ccccc4OC(C)C)cc(Cl)cc32)cc(C)c1F` [Example 308, N^1-(6-chloro-1-(4-fluoro-3,5-dimethylbenzyl)-4-(2-isopropoxyphenyl)-1H-benzo[d]imidazol-2-yl)ethane-1,2-diamine], the pEC50 in test [1] is 5.30 to 6.00. In addition, the negative-log Ki (pKi) at Son of Sevenless (SOS) is greater than 6.30.

Take `Cc1cc2c(nc(N3CCNCC3)n2Cc2ccc(F)c(C)c2)c(CNCC(C)C)n1` [Example 231, N-((1-(4-fluoro-3-methylbenzyl)-6-methyl-2-(piperazin-1-yl)-1H-imidazo[4,5-c]pyridin-4-yl)methyl)-2-methylpropan-1-amine]: the pEC50 in test [1] is 4.52 to 5.30. Moreover, the pKi on Son of Sevenless (SOS) is less than 5.30.

As to `Cc1cc(Cn2c(N3CCNCC3)nc3c(N(C)C)cc(Cl)cc32)cc(C)c1F` [Example 296, 6-chloro-1-(4-fluoro-3,5-dimethylbenzyl)-N,N-dimethyl-2-(piperazin-1-yl)-1H-benzo[d]imidazol-4-amine], in test [1], the pEC50 was 5.30 to 6.00. Moreover, the pKi on Son of Sevenless (SOS) was greater than 6.30.

In test [1], `COC(=O)c1cnn(CCN(C)C)c1-c1cc(C)cc2c1nc(N1CCNCC1)n2Cc1ccc(F)c(Cl)c1` [Example 180, methyl 5-(1-(3-chloro-4-fluorobenzyl)-6-methyl-2-(piperazin-1-yl)-1H-benzo[d]imidazol-4-yl)-1-(2-(dimethylamino)ethyl)-1H-pyrazole-4-carboxylate] showed a pEC50 greater than 6.00. The pKi on Son of Sevenless (SOS) was 5.30 to 6.00.

For `Cc1cc2c(nc(N3CCNCC3)n2Cc2ccc(F)c(Cl)c2)c(CCN)c1C` [Example 101, 2-(1-(3-chloro-4-fluorobenzyl)-5,6-dimethyl-2-(piperazin-1-yl)-1H-benzo[d]imidazol-4-yl)ethan-1-amine trifluoroacetate], the pEC50 in test [1] was 5.30 to 6.00. In addition, on Son of Sevenless (SOS), the pKi is 5.30 to 6.00.

`Nc1ccccc1-c1cccc2c1nc(N1CCNCC1)n2Cc1ccc(F)c(Cl)c1` [Example 83, 2-(1-(3-chloro-4-fluorobenzyl)-2-(piperazin-1-yl)-1H-benzo[d]imidazol-4-yl)aniline trifluoroacetate] had a pEC50 in test [1] of 5.30 to 6.00. Moreover, at Son of Sevenless (SOS), the pKi was 5.30 to 6.00.

Compound `Cc1cc2c(nc(N3CCNCC3)n2Cc2ccc(F)c(C)c2)c(-c2ccccc2C(C)C)n1` [Example 219, 1-(4-fluoro-3-methylbenzyl)-4-(2-isopropylphenyl)-6-methyl-2-(piperazin-1-yl)-1H-imidazo[4,5-c]pyridine] had a pEC50 in test [1] of 4.52 to 5.30. Also, at Son of Sevenless (SOS), the pKi was less than 5.30.

In test [1], `Cc1cc2nc(N3CCNCC3)n(Cc3ccc(F)c(C(F)(F)F)c3)c2cc1C` [Example 40, 1-(4-fluoro-3-(trifluoromethyl)benzyl)-5,6-dimethyl-2-(piperazin-1-yl)-1H-benzo[d]imidazole trifluoracetate] gave a pEC50 of 4.52 to 5.30. Also, the pKi at Son of Sevenless (SOS) was less than 5.30.

On to `Cc1cc(CN(C)C)c2ncn(Cc3ccc(F)c(Cl)c3)c2c1` [Example 145, 1-(1-(3-chloro-4-fluorobenzyl)-6-methyl-1H-benzo[d]imidazol-4-yl)-N,N-dimethylmethanamine trifluoroacetate], for which the pEC50 in test [1] is 4.00 to 4.52. The pKi on Son of Sevenless (SOS) was less than 5.30.

For `Cc1cc2nc(NCCN(C)C)n(Cc3cc(C)c(F)c(C)c3)c2cc1C` [Example 44, N^1-(1-(4-fluoro-3,5-dimethylbenzyl)-5,6-dimethyl-1H-benzo[d]imidazol-2-yl)-N^2,N^2-dimethylethane-1,2-diamine trifluoroacetate], the pEC50 in test [1] is 4.52 to 5.30. Moreover, the pKi on Son of Sevenless (SOS) was less than 5.30.

In turn, `Cc1cc2c(cc1C)N(Cc1ccc(F)c(Cl)c1)C1=NCCCN12` [Example 213, 10-(3-chloro-4-fluorobenzyl)-7,8-dimethyl-2,3,4,10-tetrahydrobenzo[4,5]imidazo[1,2-a]pyrimidine] had a pEC50 in test [1] of 5.30 to 6.00. Further, at Son of Sevenless (SOS), the pKi was less than 5.30.
